Data: paper PMC5717651, “Biotransformation of labdane and halimane diterpenoids by two filamentous fungi strains” (Royal Society Open Science, 2017)
Like-named read-outs stand apart in the source and are kept apart here.

Legend:
[1] = target: T1, human recombinant acetylcholinesterase (Hr-AChE) (Homo sapiens, UniProt P22303); assay: biochemical; conditions: for inhibition at 100 µM: pH 8, at 100 µM compound, 70 µM acetylcholine, ammonium acetate 15.0 mM, pH 8.0, n = 3, read-out: % inhibition ± s.e.m. ICER-AChEhr; for inhibitory activity on Hr-AChE (in words): authors' verbal rating
T1 construct: purchased Sigma-Aldrich C1682
T1 sequence (P22303 32-614): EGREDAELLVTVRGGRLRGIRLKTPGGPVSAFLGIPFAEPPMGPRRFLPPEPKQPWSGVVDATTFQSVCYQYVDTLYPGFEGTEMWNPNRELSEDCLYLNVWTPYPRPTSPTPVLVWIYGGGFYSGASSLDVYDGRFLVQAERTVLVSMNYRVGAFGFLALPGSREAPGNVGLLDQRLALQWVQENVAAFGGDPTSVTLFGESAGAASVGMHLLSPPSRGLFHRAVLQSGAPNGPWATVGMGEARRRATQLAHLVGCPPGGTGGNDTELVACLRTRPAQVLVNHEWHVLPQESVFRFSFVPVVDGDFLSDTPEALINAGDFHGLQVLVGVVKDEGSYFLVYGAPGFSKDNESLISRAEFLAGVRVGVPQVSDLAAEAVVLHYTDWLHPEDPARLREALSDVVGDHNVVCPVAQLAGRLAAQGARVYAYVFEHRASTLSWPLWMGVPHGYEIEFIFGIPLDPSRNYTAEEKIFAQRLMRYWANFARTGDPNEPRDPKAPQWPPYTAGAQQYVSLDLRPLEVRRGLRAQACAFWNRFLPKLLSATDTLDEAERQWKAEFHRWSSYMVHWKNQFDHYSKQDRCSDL
Protocol: (§1) Hr-AChE-ICER and Hu-BChE-ICER were prepared by covalent enzyme immobilization onto fused silica capillary tubing (30 cm × 0.375 mm × 100 µm I.D.) according to a previously described procedure. Resulting ICERs were connected to an on-flow LC-IT-MS/MS system (EMU FAPESP—Proc. PROEM 2014/50299-5) as biochromatography columns.
(§2) LC system (Shimadzu, Kyoto, Japan) consisted of two Nexera LC-20ADXR pumps, an SIL 20A auto sampler, with a 50 µl loop, a DGU-20A5 degasser and a CBM-20 interface. LC equipment was connected to an AmaZon Speed Ion Trap Mass Spectrometer equipped with an ESI source, operating in positive ion mode. Data were acquired using software Data Analysis 4.1 (Bruker Daltonics). LC analyses were performed at 25°C. Enzymatic reactions were monitored by direct quantification of choline (Ch, [M + H]^+ m/z 104), the hydrolysis product of ACh.
(§3) Samples were solubilized in methanol to provide a stock solution of 1.00 mM for each compound. Assay samples (100 µl) were prepared using 10 µl of stock solution (100 µM final concentration), 20 µl of acetylcholine solution (70 µM final concentration) and 70 µl of ammonium acetate solution (15.0 mM, pH 8.0). Solutions were prepared in duplicate and 20 µl aliquots were used for injection. Negative (absence of ACh) and positive (presence of ACh and absence of ligand) controls were analysed between each AChEI sample.

[2] = target: T2, human serum butyrylcholinesterase (Hu-BChE) (Homo sapiens, UniProt P06276); assay: On-flow Hu-BChE-ICER-IT-MS/MS screening assay (hydrolysis of acetylcholine, choline quantified); format: biochemical; conditions: for inhibitory activity on Hu-BChE (in words): authors' verbal rating
T2 construct: purchased Sigma-Aldrich B4186; host or cells: human serum
T2 sequence (P06276 29-602): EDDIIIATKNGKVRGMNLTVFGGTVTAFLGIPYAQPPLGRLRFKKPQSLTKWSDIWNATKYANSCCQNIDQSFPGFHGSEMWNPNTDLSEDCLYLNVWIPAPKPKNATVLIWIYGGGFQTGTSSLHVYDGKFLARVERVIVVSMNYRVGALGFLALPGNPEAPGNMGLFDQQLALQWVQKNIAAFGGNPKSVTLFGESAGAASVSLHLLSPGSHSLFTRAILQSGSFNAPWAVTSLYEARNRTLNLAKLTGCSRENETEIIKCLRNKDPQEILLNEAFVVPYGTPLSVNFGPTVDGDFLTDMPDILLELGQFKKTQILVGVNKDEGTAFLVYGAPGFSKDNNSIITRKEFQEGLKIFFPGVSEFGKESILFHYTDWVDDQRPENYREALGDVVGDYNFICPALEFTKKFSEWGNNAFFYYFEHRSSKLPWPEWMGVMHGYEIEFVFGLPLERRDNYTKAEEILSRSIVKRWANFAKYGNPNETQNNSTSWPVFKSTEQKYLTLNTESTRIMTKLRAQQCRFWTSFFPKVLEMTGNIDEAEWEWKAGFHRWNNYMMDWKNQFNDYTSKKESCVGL
Protocol: as §1, §2, §3

[3] = immobilized Hr-AChE capillary reactor (ICER), read-out: IC50 AChEhr
[4] = at 100 µM compound, 70 µM acetylcholine, ammonium acetate 15.0 mM, pH 8.0, n = 3, read-out: % inhibition ± s.e.m. ICER-BChEhu

Row | SMILES | IC50 [1, 3] [µM] | inhibition at 100 µM [1] [%] | inhibition at 100 µM [2, 4] [%] | inhibitory activity on Hr-AChE (in words) [1] | inhibitory activity on Hu-BChE (in words) [2] | IC50 [1] [µM] | inhibition at 100 µM ([2]; pH 8, read-out: % inhibition ± s.e.m. ICER-BChEhu) [%]
1 | C/C(=C\C(=O)O)CC[C@H]1[C@](C)(O)[C@H](O)C[C@H]2C(C)(C)CCC[C@@]21C (relative stereo) [Compound 7, (-)-(5S*, 7R*, 8R*, 9R*, 10S*)-Lab-13-en-7α,8α-diol-15-oic acid] | > 100 | 4.71 ± 0.11 | 20.1 ± 1.73 | – | – | – | –
2 | C/C(=C\C(=O)O)CC[C@@H]1[C@@]2(C)CC[C@H](O)C(C)(C)[C@@H]2CC[C@@]1(C)O (relative stereo) [Compound 8, (+)-(3S*, 5S*, 8R*, 9R*, 10S*)-Lab-13-en-3β,8α-diol-15-oic acid] | 95.7 ± 1.7 | ~50 | 13.3 ± 2.62 | weakly active | – | – | –
3 | C/C(=C\C(=O)O)CC[C@]1(C)C2=CCC[C@@](C)(CO)[C@H]2CC[C@H]1C [Compound 1, (+)-(4R, 5S, 8R, 9S)-18-Hydroxy-ent-halima-1(10),13-(E)-dien-15-oic acid] | > 100 | 24.96 ± 0.04 | 36.09 ± 0.28 | weak inhibitory activity | weak inhibitory activity | – | –
4 | C/C(=C\C(=O)O)CC[C@@H]1[C@@]2(C)CCCC(C)(C)[C@@H]2CC[C@@]1(C)O [Compound 2, (+)-(5S, 8R, 9R, 10S)-Lab-13-en-8α-ol-15-oic acid] | – | 26.5 ± 3.1 | 13.3 ± 0.39 | weak inhibitory activity | weak inhibitory activity | > 100 | –
5 | C/C(=C\C(=O)O)CC[C@]1(C)C2=CC(=O)C[C@@](C)(CO)[C@H]2CC[C@H]1C [Compound 3, (+)-(4R, 5S, 8R, 9S)-2-Oxo-18-hydroxy-ent-halima-1(10),13-(E)-dien-15-oic acid] | > 100 | 30.13 ± 0.3 | 14.5 ± 2.47 | – | – | – | –
6 | C/C(=C\C(=O)O)CC[C@]1(C)C2=CCCC(CO)(CO)[C@H]2CC[C@H]1C [Compound 4, (+)-(5S, 8R, 9S)-18,19-Dihydroxy-ent-halima-1(10),13-(E)-dien-15-oic acid] | > 100 | 39.4 ± 3.86 | 14.5 ± 2.42 | – | – | – | –
7 | C/C(=C\C(=O)O)CC[C@]1(C)C2=CCC[C@@](C)(C(=O)O)[C@H]2CC[C@H]1C [Compound 5, (+)-(4R, 5S, 8R, 9S)-18-Carboxy-ent-halima-1(10),13-(E)-dien-15-oic acid] | > 100 | ~50 | 8.17 ± 1.32 | inactive | – | – | –
8 | C/C(=C\C(=O)O)CC[C@]1(C)C2=CCC[C@@](C)(C=O)[C@H]2CC[C@H]1C [Compound 6, (+)-(4R, 5S, 8R, 9S)-18-Formyl-ent-halima-1(10),13-(E)-dien-15-oic acid] | > 100 | 3.23 ± 1.7 | 25.07 ± 0.14 | – | – | – | –
9 | COc1ccc2c3c1O[C@H]1C[C@@H](O)C=C[C@@]31CCN(C)C2 [Gal, Galanthamine, reference compound] | – | – | – | – | – | – | 75.8 ± 1.74
